Measurements taken from BindingDB's records for patent US20240092770 (Recursion Pharmaceuticals, 2024).

Target: T1, RNA-binding protein 39 [150-331]/DDB1- and CUL4-associated factor 15 (Homo sapiens, UniProt Q14498+Q66K64)
T1 construct: 150-331
Experiment: TR-FRET Assay
Procedure: A TR-FRET assay was used to assess the effect of compounds disclosed herein on the interaction between RBM39 and the DCAF15 complex. Test compounds were dissolved to form a 10 mM DMSO stock solution. A 45 μL aliquot of the stock solution was transferred to a 384 pp-plate, and a threefold, 8-point dilution was performed via transferring 15 μL compound solution into 30 μL of DMSO. The plates were then spun at room temperature at 1,000 RPM for 1 minute. A 30 nL aliquot of the diluted compound was transferred to a 384 well plate, which was incubated at room temperature for 15 minutes. Next, Solutions 1, 2, and 3 were prepared as described in the below tables. A 5 μL aliquot of Solution 2 was added to each well, followed by 5 μL of Solution 3 to start the reaction. The final volume of each well was 10 μL. The plates were incubated at room temperature for 60 minutes, and then read.

T1 sequence (Q66K64 whole entry): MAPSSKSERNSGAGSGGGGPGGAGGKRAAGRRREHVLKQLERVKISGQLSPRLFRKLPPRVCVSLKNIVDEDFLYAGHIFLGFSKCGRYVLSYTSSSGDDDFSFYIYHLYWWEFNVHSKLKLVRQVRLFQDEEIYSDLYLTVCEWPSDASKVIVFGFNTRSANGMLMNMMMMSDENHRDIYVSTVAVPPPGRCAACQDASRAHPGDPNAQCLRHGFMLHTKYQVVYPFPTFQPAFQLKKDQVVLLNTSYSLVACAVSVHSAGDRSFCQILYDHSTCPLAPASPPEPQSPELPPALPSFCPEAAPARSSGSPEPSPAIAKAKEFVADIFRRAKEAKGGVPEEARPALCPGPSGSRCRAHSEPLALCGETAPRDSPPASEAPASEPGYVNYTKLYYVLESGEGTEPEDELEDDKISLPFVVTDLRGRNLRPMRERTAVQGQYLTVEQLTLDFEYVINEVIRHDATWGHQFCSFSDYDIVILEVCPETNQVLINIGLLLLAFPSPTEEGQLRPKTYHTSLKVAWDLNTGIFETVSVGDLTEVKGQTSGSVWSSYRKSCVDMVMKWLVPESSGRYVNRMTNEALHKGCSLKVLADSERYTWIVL
T1 sequence (Q14498 150-331): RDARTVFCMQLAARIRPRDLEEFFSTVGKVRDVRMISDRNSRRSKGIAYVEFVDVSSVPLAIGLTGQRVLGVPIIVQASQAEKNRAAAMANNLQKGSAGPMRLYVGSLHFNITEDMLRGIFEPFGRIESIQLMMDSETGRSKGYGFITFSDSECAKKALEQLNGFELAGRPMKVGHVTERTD

`Cc1ccc(NS(=O)(=O)c2ncc(C(F)(F)F)s2)c2[nH]cc(C#N)c12` [US20240092770, Compound 25] was tested. Which EC50 did it give?
The EC50 was 1090 nM.
